Reference: patent publication US10669272B2, “Substituted naphthyridinone compounds useful as T cell activators” (BRISTOL-MYERS SQUIBB COMPANY, priority 2018, dated 2020)
Where two headings read alike, the source gives them in different places.

Tests used:
[1] = molecular target: T1, human DGKζ (Homo sapiens, UniProt Q13574); experiment: DGKζ LIPGLO assay (extruded liposome substrate), in vitro DGK inhibition; assay type: biochemical; settings: read-out: DGKz LIPGLO IC50
T1 construct: TVMV protease cleavage site (C); Hexa-His (C); made in house; host or cells: Sf9 insect cells (baculovirus, Bac-to-Bac)
T1 sequence (Q13574 with tags, fused parts or gaps isoform Q13574-4): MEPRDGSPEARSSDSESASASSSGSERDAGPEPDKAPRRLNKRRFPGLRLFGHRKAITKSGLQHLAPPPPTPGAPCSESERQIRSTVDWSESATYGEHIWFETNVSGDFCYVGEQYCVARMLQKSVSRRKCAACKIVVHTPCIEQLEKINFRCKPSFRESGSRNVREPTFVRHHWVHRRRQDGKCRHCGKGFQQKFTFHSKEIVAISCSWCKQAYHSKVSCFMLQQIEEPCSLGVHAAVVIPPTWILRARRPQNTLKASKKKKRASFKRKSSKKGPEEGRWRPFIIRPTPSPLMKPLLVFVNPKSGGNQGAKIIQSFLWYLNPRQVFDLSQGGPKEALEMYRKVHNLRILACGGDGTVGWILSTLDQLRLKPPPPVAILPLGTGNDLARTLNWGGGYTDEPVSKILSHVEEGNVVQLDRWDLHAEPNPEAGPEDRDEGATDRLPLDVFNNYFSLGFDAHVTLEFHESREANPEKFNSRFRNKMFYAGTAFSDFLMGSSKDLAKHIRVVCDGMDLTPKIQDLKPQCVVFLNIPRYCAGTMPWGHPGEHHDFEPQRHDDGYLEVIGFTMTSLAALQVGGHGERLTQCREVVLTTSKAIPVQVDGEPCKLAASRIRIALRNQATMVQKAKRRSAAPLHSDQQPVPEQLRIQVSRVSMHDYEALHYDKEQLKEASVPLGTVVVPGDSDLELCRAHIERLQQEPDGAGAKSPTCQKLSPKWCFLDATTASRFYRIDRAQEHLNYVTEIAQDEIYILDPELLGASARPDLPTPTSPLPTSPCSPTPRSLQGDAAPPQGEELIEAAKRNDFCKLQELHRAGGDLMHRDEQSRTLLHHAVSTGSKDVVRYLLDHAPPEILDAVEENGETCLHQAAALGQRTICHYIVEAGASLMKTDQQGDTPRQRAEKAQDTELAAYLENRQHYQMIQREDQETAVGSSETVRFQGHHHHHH

[2] = tested on: naïve human CD8 T cells; experiment: Human CD8 T cells IFN-γ assay; assay type: cell-based; settings: read-out: HuCD8 INFG Normalized EC50;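 further: Naïve human CD8 T cells stimulated with plate-bound anti-CD3 and soluble anti-CD28, IFN-γ in supernatant quantified by AlphaLISA and converted to pg/mL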
[3] = tested on: Human venous whole blood; experiment: Human whole blood IFN-γ assay; assay type: cell-based; settings: human whole blood, read-out: INFg Whole Blood Normalized Agonist EC50;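 further: blood from healthy donors exposed to compound for 1 h before stimulation with anti-CD3 and anti-CD28 at 1 µg/mL each, IFN-γ quantified in supernatant by AlphaLISA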
Experimental: Human Whole Blood IFN-γ Assay
Human venous whole blood (22.5 μL per well), obtained from healthy donors, was pre-treated with compounds for one hour at 37° C. in a humidified 95% air/5% CO2 incubator. The blood was stimulated with 2.5 μL anti-human CD3 and anti-CD28 mAb at a final concentration of 1 μg/mL each for 24 hours at 37° C. IFN-γ in the supernatants was measured using AlphLISA kit (Cat # AL217).

[4] = molecular target: T2, human DGKα (Homo sapiens, UniProt P23743); experiment: DGKα LIPGLO assay (extruded liposome substrate), in vitro DGK inhibition; assay type: biochemical; settings: read-out: DGKa LIPGLO IC50
T2 construct: TVMV protease cleavage site (C); Hexa-His (C); made in house; host or cells: Sf9 insect cells (baculovirus, Bac-to-Bac)
T2 sequence (P23743 with tags, fused parts or gaps): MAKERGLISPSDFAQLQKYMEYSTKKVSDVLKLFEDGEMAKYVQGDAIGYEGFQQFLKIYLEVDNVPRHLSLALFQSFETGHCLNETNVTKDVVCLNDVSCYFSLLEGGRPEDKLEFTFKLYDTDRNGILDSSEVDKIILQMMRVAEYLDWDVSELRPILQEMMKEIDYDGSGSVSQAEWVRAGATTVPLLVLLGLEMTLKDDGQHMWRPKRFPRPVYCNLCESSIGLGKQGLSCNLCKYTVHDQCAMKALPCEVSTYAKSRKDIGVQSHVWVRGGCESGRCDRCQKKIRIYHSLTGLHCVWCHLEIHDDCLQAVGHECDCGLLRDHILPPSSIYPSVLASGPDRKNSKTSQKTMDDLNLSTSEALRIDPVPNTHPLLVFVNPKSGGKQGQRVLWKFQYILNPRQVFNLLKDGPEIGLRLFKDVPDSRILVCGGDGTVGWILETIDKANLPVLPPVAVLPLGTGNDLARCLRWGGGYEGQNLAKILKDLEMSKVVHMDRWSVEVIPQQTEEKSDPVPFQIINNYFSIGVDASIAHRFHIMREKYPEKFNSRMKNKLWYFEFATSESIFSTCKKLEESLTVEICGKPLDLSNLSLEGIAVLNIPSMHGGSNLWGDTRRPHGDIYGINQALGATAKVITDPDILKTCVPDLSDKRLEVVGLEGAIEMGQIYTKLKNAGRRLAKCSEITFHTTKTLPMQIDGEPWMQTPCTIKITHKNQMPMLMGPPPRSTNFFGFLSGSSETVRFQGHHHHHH

[5] = Homo sapiens, T-cell, 20 h, normalized to 3 μM reference compound with anti-CD3 plus anti-CD28 as 100% activation
[6] = Homo sapiens, 24 h, normalized to 3 μM reference compound with anti-CD3 plus anti-CD28 as 100% activation
[7] = Homo sapiens, T-cell, 20 h, naïve human CD8 T cells, anti-CD3 plus anti-CD28, 3 μM reference compound = 100% activation
[8] = anti-CD3 plus anti-CD28, 24 hours, 3 μM reference compound = 100% activation
[9] = normalized to 3 μM reference compound with anti-CD3 plus anti-CD28 as 100% activation
[10] = Homo sapiens, 24 h, anti-CD3 plus anti-CD28, 24 hours, 3 μM reference compound = 100% activation

Structure (SMILES)	IC50 ([1]; liposome (LIPGLO) assay)	EC50 [2, 5]	EC50 [3, 6]	IC50 ([4]; liposome (LIPGLO) assay)	IC50 ([1]; DGKζ liposome (LIPGLO) assay)	EC50 [2, 7]	EC50 [3, 8]	IC50 ([4]; DGKα liposome (LIPGLO) assay)	EC50 [2, 9]	EC50 [3, 9]	EC50 [3, 10]
C[C@@H]1CN(c2cc(=O)n(C)c3ccc(C#N)nc23)[C@@H](C)CN1C(c1ccc(F)cc1)c1ccncn1 (single isomer, unassigned) [Example 392]	2100 nM	66 nM	330 nM	180 nM	–	–	–	–	–	–	–
C[C@@H]1CN(c2c(C#N)c(=O)n(C)c3ccc(C#N)nc23)CCN1C(c1cccc(Cl)c1)c1ccc(F)cn1 (stereo partly drawn) [Example 927]	–	–	–	–	1600 nM	300 nM	800 nM	2600 nM	–	–	–
C[C@@H]1CN(c2cc(=O)n(C)c3ccc(C#N)nc23)[C@@H](C)CN1C(c1ccc(Cl)cc1)c1ccc(C#N)cc1 (stereo partly drawn) [Example 298, 8-((2S,5R)-4-((4-chlorophenyl)(4-cyanophenyl)methyl)-2,5-dimethylpiperazin-1-yl)-5-methyl-6-oxo-5,6-dihydro-1,5-naphthyridine-2-carbonitrile]	2400 nM	29 nM	570 nM	1500 nM	–	–	–	–	–	–	–
Cc1nc(C(F)(F)F)ccc1CN1C[C@H](C)N(c2cc(=O)n(C)c3ccc(C#N)nc23)C[C@H]1C [Example 279, 8-[(2S,5R)-2,5-dimethyl-4-{[2-methyl-6-(trifluoromethyl)pyridin-3-yl]methyl}piperazin-1-yl]-5-methyl-6-oxo-5,6-dihydro-1,5-naphthyridine-2-carbonitrile]	4600 nM	1200 nM	3700 nM	2300 nM	–	–	–	–	–	–	–
C[C@@H]1CN(c2cc(=O)n(C)c3ccc(C#N)nc23)[C@@H](C)CN1C(c1ccc(Cl)cc1)c1ccc(F)cn1 (single isomer, unassigned) [Example 191]	590 nM	31 nM	430 nM	200 nM	–	–	–	–	–	–	–
C[C@@H]1CN(c2cc(=O)n(C)c3ccc(C#N)nc23)[C@@H](C)CN1Cc1ccccc1 [Example 264, 8-[(2S,5R)-4-benzyl-2,5-dimethylpiperazin-1-yl]-5-methyl-6-oxo-5,6-dihydro-1,5-naphthyridine-2-carbonitrile]	3000 nM	260 nM	11000 nM	35 nM	–	–	–	–	–	–	–
CCc1cc(F)ccc1C(c1ccc(Cl)cc1)N1C[C@H](C)N(c2cc(=O)n(C)c3ccc(OC)nc23)C[C@H]1C (single isomer, unassigned) [Example 231]	3700 nM	–	20000 nM	240000 nM	–	–	–	–	1100 nM	–	–
C[C@@H]1CN(c2cc(=O)n(C)c3ccc(C#N)nc23)[C@@H](C)CN1C(c1ccc(F)cc1)c1ncccc1F (single isomer, unassigned) [Example 188]	3800 nM	–	–	690 nM	–	–	–	–	14 nM	660 nM	–
C[C@@H]1CN(c2cc(=O)n(C)c3ccc(C#N)nc23)[C@@H](C)CN1C(c1ccc(F)cc1)c1nc(C2CCOCC2)no1 (single isomer, unassigned) [Example 739]	–	–	–	–	760 nM	52 nM	–	130 nM	–	–	190 nM
C[C@@H]1CN(c2cc(=O)n(C)c3ccc(C#N)nc23)[C@@H](C)CN1Cc1ccccc1O [Example 245, 8-[(2S,5R)-4-[(2-hydroxyphenyl)methyl]-2,5-dimethylpiperazin-1-yl]-5-methyl-6-oxo-5,6-dihydro-1,5-naphthyridine-2-carbonitrile]	1100 nM	750 nM	5200 nM	8.6 nM	–	–	–	–	–	–	–
C[C@@H]1CN(c2cc(=O)n(C)c3ccc(C#N)nc23)[C@@H](C)CN1C(c1ccc(Cl)cc1)c1ccccn1 (single isomer, unassigned) [Example 381]	500 nM	3.9 nM	–	360 nM	–	–	–	–	–	180 nM	–
C[C@@H]1CN(c2cc(=O)n(C)c3ccc(C#N)nc23)[C@@H](C)CN1C(c1ccc(OC(F)(F)F)cc1)c1ccc(F)cn1 (mixture of isomers) [Example 462, 8-((2S,5R)-4-((5-fluoropyridin-2-yl)(4-(trifluoromethoxy)phenyl)methyl)-2,5-dimethylpiperazin-1-yl)-5-methyl-6-oxo-5,6-dihydro-1,5-naphthyridine-2-carbonitrile]	1800 nM	20 nM	–	140 nM	–	–	–	–	–	450 nM	–
C[C@@H]1CN(c2c(F)c(=O)n(C)c3ccc(C#N)nc23)[C@@H](C)CN1C(c1ccc(F)cc1)c1ccc(C#N)cc1 (stereo partly drawn) [Example 328, 8-((2S,5R)-4-((4-cyanophenyl)(4-fluorophenyl)methyl)-2,5-dimethylpiperazin-1-yl)-7-fluoro-5-methyl-6-oxo-5,6-dihydro-1,5-naphthyridine-2-carbonitrile]	2600 nM	–	–	1200 nM	–	–	–	–	6000 nM	1000 nM	–
CC(C)[C@H]1CN(c2c(C#N)c(=O)n(C)c3ccc(C#N)nc23)CCN1C(c1ccc(F)cc1)c1ccc(F)cc1 [Example 12, (S)-8-(4-(bis(4-fluorophenyl)methyl)-3-isopropylpiperazin-1-yl)-5-methyl-6-oxo-5,6-dihydro-1,5-naphthyridine-2,7-dicarbonitrile]	58000 nM	10000 nM	13000 nM	2700 nM	–	–	–	–	–	–	–
CCc1ccc(C(c2cccc(F)c2)N2C[C@H](C)N(c3cc(=O)n(C)c4ccc(C#N)nc34)C[C@H]2C)nc1 (single isomer, unassigned) [Example 350]	1800 nM	–	–	1900 nM	–	–	–	–	200 nM	850 nM	–
Cc1ccc(C(c2ccc(C#N)cc2)N2C[C@H](C)N(c3cc(=O)n(C)c4ccc(C#N)nc34)C[C@H]2C)nc1 (single isomer, unassigned) [Example 360]	2500 nM	130 nM	–	570 nM	–	–	–	–	–	310 nM	–
Cn1c(=O)cc(N2CCN(C(c3ccc(F)cc3)c3ccc(F)cc3)C(C#N)C2)c2nc(C#N)ccc21 (stereo not drawn) [Example 43, 8-(4-(bis(4-fluorophenyl)methyl)-3-cyanopiperazin-1-yl)-5-methyl-6-oxo-5,6-dihydro-1,5-naphthyridine-2-carbonitrile]	3100 nM	87 nM	1200 nM	6200 nM	–	–	–	–	–	–	–
COc1ccc(C(c2cccc(F)c2)N2C[C@H](C)N(c3cc(=O)n(C)c4ccc(C#N)nc34)C[C@H]2C)nc1 (single isomer, unassigned) [Example 687]	730 nM	17 nM	–	1600 nM	–	–	–	–	–	270 nM	–
COc1cc(CN2C[C@H](C)N(c3cc(=O)n(C)c4ccc(C#N)nc34)C[C@H]2C)cc(C(F)(F)F)n1 [Example 280, 8-[(2S,5R)-4-{[2-methoxy-6-(trifluoromethyl)pyridin-4-yl]methyl}-2,5-dimethylpiperazin-1-yl]-5-methyl-6-oxo-5,6-dihydro-1,5-naphthyridine-2-carbonitrile]	7300 nM	680 nM	7700 nM	7900 nM	–	–	–	–	–	–	–
C[C@@H]1CN(c2cc(=O)n(C)c3ccc(C#N)nc23)[C@@H](C)CN1C(c1ccc(OC(F)(F)F)cc1)c1cccc(F)n1 (single isomer, unassigned) [Example 367]	2700 nM	13 nM	460 nM	1300 nM	–	–	–	–	–	–	–
C[C@@H]1CN(c2cc(=O)n(C)c3ccc(C#N)nc23)[C@@H](C)CN1C(c1ccc(F)cc1)c1nc(C2CC2)no1 (single isomer, unassigned) [Example 736]	–	–	–	–	480 nM	25 nM	–	160 nM	–	–	150 nM
Cc1ccc(C(c2ccc(F)cn2)N2C[C@H](C)N(c3cc(=O)n(C)c4ccc(C#N)nc34)C[C@H]2C)cc1 (single isomer, unassigned) [Example 444]	760 nM	49 nM	510 nM	130 nM	–	–	–	–	–	–	–
CC(c1ccc(F)cc1)N1C[C@H](C)N(c2cc(=O)n(C)c3ccc(C#N)nc23)C[C@H]1C (single isomer, unassigned) [Example 309]	490 nM	–	–	720 nM	–	–	–	–	36 nM	880 nM	–
C[C@@H]1CN(c2cc(=O)n(C)c3ccc(C#N)nc23)[C@@H](C)CN1C(c1ccc(Cl)cc1)c1ncccc1F (single isomer, unassigned) [Example 189]	550 nM	100 nM	1200 nM	200 nM	–	–	–	–	–	–	–
C[C@@H]1CN(c2c(C#N)c(=O)n(C)c3ccc(C#N)nc23)CCN1C(c1ccc(F)cc1)c1ccc(F)cn1 (stereo partly drawn) [Example 903]	–	–	–	–	3500 nM	140 nM	730 nM	630 nM	–	–	–
C[C@@H]1CN(c2cc(=O)n(C)c3ccc(C#N)nc23)[C@@H](C)CN1C(c1ccc(F)cc1)c1cnsc1 (single isomer, unassigned) [Example 715]	3900 nM	42 nM	–	360 nM	–	–	–	–	–	680 nM	–
CC[C@H]1CN(C(c2ccc(Cl)cc2)c2ccc(F)cn2)[C@H](CC)CN1c1cc(=O)n(C)c2ccc(C#N)nc12 (single isomer, unassigned) [Example 1033]	59 nM	–	120 nM	98 nM	–	–	–	–	190 nM	–	–
